This passage reports IC50 and EC50 results from patent US9695132B2, “Heteroaryl compounds and uses thereof” (Celgene CAR LLC, priority 2013, dated 2017).

The target of one assay is FGFR4-WT (Homo sapiens (Human), UniProt P22455). The assay is described as follows: Omnia assay for potency assessment against FGFR4 enzyme. The format is biochemical. Here is the method:
A 10× stock solution of FGFR4-WT (PR4380C), (from Invitrogen, Carlsbad, Calif.) corresponding to method a in Table 7, was prepared as described below. Alternatively, a 10× stock solution of FGFR4-WT (F01-11G), (SignalChem, Richmond, BC) corresponding to method b in Table 7, was prepared as described below. A solution of 1.4×ATP (AS001A) and 5× Tyr-Sox conjugated peptide substrate (KNZ3101) were prepared in 1× kinase reaction buffer consisting of 20 mM Tris, pH 7.5, 5 mM MgCl2, 1 mM EGTA, 5 mM β-glycerophosphate, 5% glycerol (10× stock, KB002A) and 0.2 mM DTT (DS001A). […] The serially diluted compounds were prepared on a Tecan EVO100. A second addition of 10 μl of Tyr-Sox FGFR4 substrate was added to each well and the kinase reactions were started with the addition of 35 μL of 1.4×ATP. The reactions were monitored every 71 seconds for 240 minutes at λex360/λem485 in a Synergy plate reader from BioTek (Winooski, Vt.).

The target in a further assay is pFGFR4 in Huh7 cells (Homo sapiens (Human), UniProt P22455). The assay is described as follows: FGFR4 signaling, Meso Scale assay (MSD), Method B, Huh7.
Where [1] appears, read: method a: [FGFR4-WT]=10 nM (Invitrogen), [ATP]=300 uM, [Y10-Sox]=10 uM.
Setting [2] is: method b: [FGFR4-WT]=2.5 nM (SignalChem), [ATP]=250 uM, [Y10-Sox]=10 uM.

Molecules are shown by their SMILES. Like-named read-outs stand apart in the source and are kept apart here. Bounds are passed on as bounds.

Sequence of pFGFR4 in Huh7 cells (P22455 22-802): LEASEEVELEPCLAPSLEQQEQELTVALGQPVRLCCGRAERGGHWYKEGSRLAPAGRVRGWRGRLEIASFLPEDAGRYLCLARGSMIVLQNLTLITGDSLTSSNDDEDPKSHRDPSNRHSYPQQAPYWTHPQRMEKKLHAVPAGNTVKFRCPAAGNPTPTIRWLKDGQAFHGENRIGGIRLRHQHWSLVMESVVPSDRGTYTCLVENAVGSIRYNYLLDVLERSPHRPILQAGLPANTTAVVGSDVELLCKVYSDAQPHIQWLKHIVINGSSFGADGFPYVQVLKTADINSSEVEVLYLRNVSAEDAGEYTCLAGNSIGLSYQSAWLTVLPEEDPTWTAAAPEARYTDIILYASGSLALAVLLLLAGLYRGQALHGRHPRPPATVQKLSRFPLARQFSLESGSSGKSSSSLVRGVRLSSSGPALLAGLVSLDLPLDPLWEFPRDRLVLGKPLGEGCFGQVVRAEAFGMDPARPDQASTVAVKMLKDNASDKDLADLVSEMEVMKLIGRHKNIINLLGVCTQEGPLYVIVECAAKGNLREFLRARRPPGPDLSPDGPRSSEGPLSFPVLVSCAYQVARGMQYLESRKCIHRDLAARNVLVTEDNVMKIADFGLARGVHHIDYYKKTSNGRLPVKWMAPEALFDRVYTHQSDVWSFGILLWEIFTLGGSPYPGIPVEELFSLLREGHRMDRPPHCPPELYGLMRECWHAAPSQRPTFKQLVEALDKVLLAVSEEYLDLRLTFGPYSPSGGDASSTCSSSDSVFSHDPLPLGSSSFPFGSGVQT
Sequence of FGFR4-WT (P22455 22-802): as above
Description for pFGFR4 in Huh7 cells: Huh7 cells were grown in DMEM (Invitrogen, Carlsbad, Calif.) supplemented with 10% FBS (Invitrogen) and 1% Penicillin-Streptomycin (P/S, Lonza, Walkersville, Md.).
For the MSD and ELISA assays, total FGFR4 antibodies were obtained from R&D Systems (Minneapolis, Minn.) and used at 1:500. […] Phospho-FGFR antibodies were obtained from Cell Signaling (Danvers, Mass.) or R&D Systems and used at 1:1000. The phopho-FGFR antibody from Cell Signaling was used for immunoblotting, whereas the phopho-FGFR antibody from R&D was used for MSD and ELISA assays. Secondary antibodies were used at 1:10,000. The goat anti-mouse IgG IRDye 800CW antibody was obtained from LiCor Biosciences (Lincoln, Nebr.) and the goat anti-rabbit IgG Alexa Fluor 680 was obtained from Invitrogen. The anti-rabbit Sulfo-tag and anti-streptavidin Sulfo-tag antibodies was obtained from Meso Scale Discovery (Gaithersburg, Md.), and were used at 1:1000 and 1:5000, respectively.
After treatment, the cells were washed with cold PBS (Invitrogen), and were immediately lysed by freeze/thawing 3× in 32 μL of cold Cell Extraction Buffer (Invitrogen), which was supplemented with Complete Protease inhibitors (Roche) and PhosphoSTOP (Roche) phosphatase inhibitors.
MSD plates (Meso Scale Discovery) were coated with total FGFR-4 antibodies overnight at 4° C. A lysate (25 μL) was added to the MSD plate overnight at 4° C. The MSD signals were obtained by incubating with a phospho-FGFR antibody (R&D Systems) and an anti-rabbit sulfo-tag antibody (Meso Scale), for 2 hr at room temperature. […] The data was fitted using a sigmoidal curve analysis program (Graph Pad Prism version 5) with variable Hill slope to determine the EC50 values.

With `C=CC(=O)Nc1ccccc1Nc1ncc2c(n1)N(CCOC)C(=O)N(c1cc(OC)cc(OC)c1)C2` [Compound I-59], on FGFR4-WT (setting [1]), the IC50 was less than 100 nM. The compound also displayed an EC50 at pFGFR4 in Huh7 cells of 101 to 500 nM.
Turning to `C=CC(=O)N[C@H]1CCCC[C@H]1Nc1ncc2c(n1)N(C)C(=O)N(c1c(Cl)c(OC)c(OC)c(OC)c1Cl)C2` [Compound I-221], the EC50 at pFGFR4 in Huh7 cells is more than 1000 nM.
As for `C=CC(=O)NC1CN(c2ccn(C)n2)CC1Nc1ncc2c(n1)N(C)C(=O)N(c1c(Cl)c(OC)cc(OC)c1Cl)C2` (stereo not shown) [Compound I-204], the IC50 on FGFR4-WT (setting [1]) was less than 100 nM. In addition, the EC50 at pFGFR4 in Huh7 cells was less than 100 nM.
For the compound `C=CC(=O)Nc1ccccc1Nc1ncc2c(n1)N(C)C(=O)N(c1cc(OC)cc(OC)c1)C2` [Compound I-5], on FGFR4-WT (setting [1]), the IC50 is less than 100 nM. At pFGFR4 in Huh7 cells, this compound returned an EC50 of 101 to 500 nM.
Turning to `C=CC(=O)Nc1ccccc1Nc1ncc2c(n1)N(Cc1ccnc(N)c1)C(=O)N(c1cc(OC)cc(OC)c1)C2` [Compound I-87], the IC50 at FGFR4-WT (setting [1]) is less than 100 nM. Moreover, on pFGFR4 in Huh7 cells, the EC50 is less than 100 nM.
As to `C=CC(=O)Nc1cc(C(F)(F)F)ccc1Nc1ncc2c(n1)N(Cc1ccccc1)C(=O)N(c1c(Cl)c(OC)cc(OC)c1Cl)C2` [Compound I-6], the IC50 at FGFR4-WT (setting [2]) fell in the range of 501 to 999 nM. For the same compound, the EC50 at pFGFR4 in Huh7 cells is 101 to 500 nM.
As for `C=CC(=O)Nc1cc(N2CCN(C(=O)CCCC(=O)NCCCOCCOCCOCCCNC(=O)CCCC[C@@H]3SC[C@@H]4NC(=O)N[C@@H]43)CC2)ccc1Nc1ncc2c(n1)N(C)C(=O)N(c1c(Cl)c(OC)cc(OC)c1Cl)C2` [Compound I-127], at FGFR4-WT, the IC50 was less than 100 nM. Further, the EC50 at pFGFR4 in Huh7 cells fell in the range of 101 to 500 nM.
With `C=CC(=O)NC1COCC1Nc1ncc2c(n1)N(C)C(=O)N(c1c(Cl)c(OC)c(OC)c(OC)c1Cl)C2` (stereo not shown) [Compound I-208], the IC50 on FGFR4-WT (setting [1]) was 501 to 999 nM. The same compound gave a concentration for a half-maximal effect (EC50) on pFGFR4 in Huh7 cells of more than 1000 nM.
Consider `C=CC(=O)NC1COCC1Nc1ncc2c(n1)N(C)C(=O)N(c1cc(C(=O)Nc3cccc(C(C)(C)C#N)c3)ccc1Cl)C2` (stereo not shown) [Compound I-246], for which the IC50 on FGFR4-WT (setting [1]) is 101 to 500 nM. This compound had an EC50 at pFGFR4 in Huh7 cells of 101 to 500 nM.
Regarding `C=CC(=O)NC1COCC1Nc1ncc2c(n1)N(Cc1cn[nH]c1)C(=O)N(c1c(Cl)c(OC)cc(OC)c1Cl)C2` (stereo not shown) [Compound I-214], the EC50 on pFGFR4 in Huh7 cells fell in the range of 101 to 500 nM.
On to `C=CC(=O)Nc1ccccc1Nc1ncc2c(n1)N(C1COC1)C(=O)N(c1cc(OC)cc(OC)c1)C2` [Compound I-88], for which, at FGFR4-WT (setting [1]), the IC50 is less than 100 nM. Further, the 50% effective concentration (EC50) on pFGFR4 in Huh7 cells was in the range of 101 to 500 nM.
In turn, `C=CC(=O)NC1CN(C(C)=O)CC1Nc1ncc2c(n1)N(C)C(=O)N(c1c(Cl)c(OC)cc(OC)c1Cl)C2` (racemic) [Compound I-139] showed an EC50 on pFGFR4 in Huh7 cells of 101 to 500 nM.
On pFGFR4 in Huh7 cells, `C=CC(=O)NC1COCC1Nc1ncc2c(n1)N(CC1CC1)C(=O)N(c1c(Cl)c(OC)cc(OC)c1Cl)C2` (stereo not shown) [Compound I-212] showed an EC50 of less than 100 nM.
Turning to `C=CC(=O)NC1CN(C)CC1Nc1ncc2c(n1)N(C)C(=O)N(c1c(Cl)c(OC)cc(OC)c1Cl)C2` (racemic) [Compound I-138], at pFGFR4 in Huh7 cells, the EC50 fell in the range of 101 to 500 nM.
At pFGFR4 in Huh7 cells, `C=CC(=O)NC1COCC1Nc1ncc2c(n1)N(Cc1cscn1)C(=O)N(c1c(Cl)c(OC)cc(OC)c1Cl)C2` (stereo not shown) [Compound I-210] yielded an EC50 of less than 100 nM.
The same measure, in the same setting: under `C=CC(=O)NC1CCCCC1Nc1ncc2c(n1)N(CCF)C(=O)N(c1c(Cl)c(OC)cc(OC)c1Cl)C2` (racemic) [Compound I-106] stands 101 to 500 nM.
Regarding `C=CC(=O)Nc1ccccc1Nc1ncc2c(n1)N(CCC(O)CO)C(=O)N(c1cc(OC)cc(OC)c1)C2` (stereo not shown) [Compound I-58], the IC50 on FGFR4-WT (setting [1]) is less than 100 nM.
Take `C=CS(=O)(=O)Nc1ccccc1Nc1ncc2c(n1)N(C)C(=O)N(c1cc(OC)cc(OC)c1)C2` [Compound I-67]: the 50% inhibitory concentration (IC50) at FGFR4-WT (setting [1]) was less than 100 nM.
Take `C=CCCN1C(=O)N(c2cc(OC)cc(OC)c2)Cc2cnc(Nc3ccccc3NC(=O)C=C)nc21` [Compound I-57]: the 50% inhibitory concentration (IC50) on FGFR4-WT (setting [1]) is less than 100 nM.
On the same count and under the same terms, for `C=CC(=O)Nc1ccccc1Nc1ncc2c(n1)N(Cc1ccc(F)c(N)c1)C(=O)N(c1c(Cl)c(OC)cc(OC)c1Cl)C2` [Compound I-144] the value was less than 100 nM; for `C=CC(=O)N[C@H]1CCCC[C@H]1Nc1ncc2c(n1)N(Cc1ccn(C)n1)C(=O)N(c1c(Cl)c(OC)cc(OC)c1Cl)C2` [Compound I-147], less than 100 nM.
As for `C=CC(=O)Nc1cc(N2CCN(C(=O)CCC(=O)O)CC2)ccc1Nc1ncc2c(n1)N(C)C(=O)N(c1c(Cl)c(OC)cc(OC)c1Cl)C2` [Compound I-123], the 50% inhibitory concentration (IC50) at FGFR4-WT (setting [1]) is less than 100 nM.
`C=CC(=O)Nc1ccccc1Nc1ncc2c(n1)N(CC1CCNCC1)C(=O)N(c1cc(OC)cc(OC)c1)C2` [Compound I-40]: the IC50 at FGFR4-WT (setting [1]) is less than 100 nM.
The same measure, in the same setting: for `C=CC(=O)Nc1cc(C2=CCN(CC)CC2)ccc1Nc1ncc2c(n1)N(C)C(=O)N(c1cc(OC)cc(OC)c1)C2` [Compound I-56] the value was less than 100 nM.
With `C=CC(=O)Nc1ccccc1Nc1ncc2cc(-c3cc(OC)cc(OC)c3)c(N)nc2n1` [Compound I-155], on pFGFR4 in Huh7 cells, the EC50 is more than 1000 nM.
In the case of `C=CC(=O)Nc1ccc(-c2nccs2)cc1Nc1ncc2c(n1)N(C)C(=O)N(c1cc(OC)cc(OC)c1)C2` [Compound I-78], the IC50 at FGFR4-WT (setting [1]) is less than 100 nM.
On to `C=CC(=O)Nc1cc(N2CCN(CCOC)CC2)ccc1Nc1ncc2c(n1)N(Cc1cccc(NC(=O)CC)c1)C(=O)N(c1cc(OC)cc(OC)c1)C2` [Compound I-9], for which the EC50 on pFGFR4 in Huh7 cells was in the range of 101 to 500 nM.
In the case of `C=CC(=O)Nc1ccccc1Nc1ncc2c(n1)N(C)C(=O)N(C1CC1)C2` [Compound I-51], on FGFR4-WT (setting [1]), the IC50 is more than 1000 nM.
As to `C=CC(=O)Nc1ccccc1Oc1ncc2c(n1)N(C)C(=O)N(c1c(Cl)c(OC)cc(OC)c1Cl)C2` [Compound I-65], the IC50 at FGFR4-WT (setting [1]) is less than 100 nM.
For the compound `C=CC(=O)Nc1ccccc1Nc1ncc2c(n1)N(Cc1ccc(Cl)c(OC)c1)C(=O)N(c1c(Cl)c(OC)cc(OC)c1Cl)C2` [Compound I-24], at FGFR4-WT (setting [2]), the IC50 is less than 100 nM.
Regarding `C=CC(=O)Nc1cc(OC)ccc1Nc1ncc2cc(-c3c(Cl)c(OC)cc(OC)c3Cl)c(=O)n(C)c2n1` [Compound I-242], on pFGFR4 in Huh7 cells, the EC50 is less than 100 nM.
With `C=CC(=O)NC1CNC(=O)CC1Nc1ncc2c(n1)N(C)C(=O)N(c1c(Cl)c(OC)cc(OC)c1Cl)C2` (stereo not shown) [Compound I-196], on FGFR4-WT (setting [1]), the IC50 is less than 100 nM.
At pFGFR4 in Huh7 cells, `C=CC(=O)N[C@H]1CCCC[C@H]1Nc1ncc2c(n1)N(Cc1cscn1)C(=O)N(c1c(Cl)c(OC)cc(OC)c1Cl)C2` [Compound I-114] displayed a half-maximal effective concentration (EC50) of 101 to 500 nM.
As for `C=CC(=O)Nc1ccccc1Nc1ncc2c(n1)N(CC(=O)OC(C)(C)C)C(=O)N(c1cc(OC)cc(OC)c1)C2` [Compound I-96], the IC50 on FGFR4-WT (setting [1]) was more than 1000 nM.
The same measure, in the same setting: for `C=CC(=O)Nc1ccccc1Nc1ncc2c(n1)N(CC(F)F)C(=O)N(c1c(Cl)c(OC)cc(OC)c1Cl)C2` [Compound I-103] the value was less than 100 nM; for `C=CC(=O)Nc1ccccc1Nc1ncc2c(n1)N(C)C(=O)N(c1cc(OC)cc(OC)c1F)C2` [Compound I-108], less than 100 nM.
As to `C=CC(=O)Nc1ccccc1Nc1ncc2c(n1)N(CC(O)CO)C(=O)N(c1cc(OC)cc(OC)c1)C2` (stereo not shown) [Compound I-33], at pFGFR4 in Huh7 cells, the EC50 was more than 1000 nM.
`C=CC(=O)Nc1cc(C(=O)NC2CCN(C)CC2)ccc1Nc1ncc2c(n1)N(C)C(=O)N(c1c(Cl)c(OC)cc(OC)c1Cl)C2` [Compound I-150]: the IC50 at FGFR4-WT (setting [1]) was less than 100 nM.
Compound `COc1cc(OC)c(Cl)c(N2Cc3cnc(Nc4ccccc4)nc3N(C)C2=O)c1Cl` [Compound I-238] gave a concentration giving a half-maximal response (EC50) at pFGFR4 in Huh7 cells of less than 100 nM.
With `C=CC(=O)Nc1cc(Cl)c(Cl)cc1Nc1ncc2c(n1)N(Cc1ccccc1)C(=O)N(c1c(Cl)c(OC)cc(OC)c1Cl)C2` [Compound I-11], at FGFR4-WT (setting [2]), the IC50 was in the range of 501 to 999 nM.

One may read the IC50 as the concentration at which inhibition is half-maximal. One may read the EC50 as the concentration needed to bring the measured effect to its halfway point. Higher therefore signals a less potent agent.
